From patent US20100132057A1, “GENETICALLY MODIFIED ANIMAL FOR USE IN EVALUATING HARMFULNESS OF TEST SUBSTANCE” (priority 2008, published 2010)

How the values were obtained:
[1] = tested on: reporter (luciferase) gene under AhR-binding enhancer of the TH gene and TH gene promoter in primary neuronal cells; assay: Luciferase luminescence in primary neuronal cells isolated from genetically modified mouse during exposure to TCDD; format: cell-based; conditions: 24 hours, FIG. 9; for increase in the degree of luminescence from the unexposed case: primary neuronal cells of mouse #176 embryos (E12)
Description: Another embodiment of the invention is directed to a method that includes isolating primary neuronal cells from the genetically modified mouse, exposing the primary neuronal cells to a test substance, and then measuring the expression of the reporter gene in the cells to evaluate the effect of the test substance on the central nervous system. When the reporter gene is a firefly luciferase gene, the method may include isolating primary neuronal cells from the genetically modified mouse, exposing the primary neuronal cells to a test substance, collecting the cells to extract proteins therefrom 2 to 72 hours after the exposure, adding luciferin, a substrate for the luciferase, to the liquid extract, and measuring luminescence derived from the enzyme activity of the luciferase with a luminometer.
The genetically modified mouse #176 (hetero, male) was mated with a wild-type mouse, and 12 days after the observation of the plug, the brain was removed from the embryo (E12: an embryonic age of 12 days) under a sterile environment. All the removed embryonic brains were collected, and 0.25% trypsin was added thereto and incubated at 37° C. for 15 minutes. The trypsin was removed. After washed tree times with the Hank's solution, the cells were suspended in a serum-containing DF 1:1 medium (Dulbecco-F12 equal-ratio mixture medium+10% fetal bovine serum). […]
[…] The resulting extracted protein solution was used in the measurement of luciferase luminescence. In the luciferase luminescence measurement, 100 μl of an assay solution (PicaGene Assay Kit, Toyo B-Net Co., Ltd.) was added to 10 μl of the collected protein solution and stirred, and immediately after the stirring, the degree of luminescence per 2 minutes was measured with a luminometer LB-940 (Berthold). The resulting degree of luminescence was divided by the total protein amount of the protein solution so that it was converted into a relative luminescence intensity (RLU/min/μg protein). The total protein amount of the solution was measured with a protein assay kit (Bio-Rad).

[2] = tested on: reporter (luciferase) gene under AhR-binding enhancer of the TH gene and TH gene promoter; assay: Luciferase luminescence in genetically modified mouse during exposure to βNF (IVIS imaging); format: in vivo
Procedure: When the reporter gene is a firefly luciferase gene, the method may include administering luciferin, a substrate for the luciferase, by intraperitoneal injection to the genetically modified mouse 6 to 72 hours after the administration of the test substance to the genetically modified mouse and measuring luminescence derived from the individual or derived from the enzyme activity of the luciferase in the brain with a luminescence measurement system such as an In-Vivo Imaging System (IVIS), manufactured by Xenogen Corporation.
A dioxin analog, β-naphthoflavone (βNF), was used as a test substance. A solution of βNF in corn oil was intraperitoneally injected at a βNF dose of 40 mg/kg into each of the genetically modified mice #176 (4 weeks old), #177 (6 weeks old) and #184 (6 weeks old) in the T1 generation. The same amount of corn oil as the amount of the solution in the βNF-administered group was intraperitoneally administered to each of the control group mice (the genetically modified mice in the T1 generation). […] After 5 minutes, an In-Vivo Imaging System (IVIS 100-series), manufactured by Xenogen Corporation, was used to detect luciferase luminescence in the mice. […] In addition, the brain of the genetically modified mouse #176 was cut in the vicinity of the midbrain, and luminescence from the cut section was measured with the IVIS System.

| Structure (SMILES) | change in the degree of luminescence with TCDD concentration ([1]; TCDD 0, 0.1 or 10 ng/ml, primary neuronal cells of mouse #176 embryos) | increase in the degree of luminescence from the unexposed case ([1]; exposure to 0.1 nM TCDD) | increase in the degree of luminescence from the unexposed case ([1]; exposure to 10 ng/ml TCDD) | luciferase luminescence in the mice ([2]; genetically modified mice #176, #177, #184 (T1 generation), βNF 40 mg/kg intraperitoneal in corn oil, 72 hours after administration, whole-body IVIS, FIG. 6) | degree of luminescence from cut brain section ([2]; genetically modified mouse #176, βNF 40 mg/kg intraperitoneal, brain cut in the vicinity of the midbrain, IVIS, FIG. 7) |
| --- | --- | --- | --- | --- | --- |
| Clc1cc2c(cc1Cl)Oc1cc(Cl)c(Cl)cc1O2 [TCDD, 2,3,7,8-tetrachlorodibenzo-p-dioxin] | TCDD concentration-dependent increase in the degree of luminescence | 1.3 times | 3.1 times | – | – |
| O=c1cc(-c2ccccc2)oc2ccc3ccccc3c12 [βNF, β-naphthoflavone] | – | – | – | luciferase luminescence was observed in all the genetically modified mice | an increase in the degree of luminescence was detected in the vicinity of the midbrain or hippocampus |
